# Structures can show the parent of a compound that is named as a salt.
# Assays:
# [1] = test system: osteosarcoma cell line MG-63; parameters: method as in Edin et al. [38]; conditions: MG-63 in vitro; ref Edin et al. [38]; cited from earlier work
# [2] = test system: Staphylococcus aureus Xen 36; experiment: In-vivo infection prevention study: microbiological analysis of explanted tissue
# Experimental: Bioluminescent strain Staphylococcus aureus Xen 36 (Caliper LifeSciences, Alameda, CA) was used to develop bone infection. The strain was stored in a glycerol (20% v/v) and Brain Heart Infusion (BHI) suspension at -80°C until required. Bacteria were subcultured onto an LB plate (Luria-Bertani, Miller broth mixed with 1.2% (w/v) Technical Agar (Difco, Sparks, MD.)), at 37°C overnight. Five colonies were then transferred to 3 mL LB broth and grown in shaker incubator (200 rpm), at 37°C for 2.5 h. Two milliliters of the bacterial suspension was transferred to 100 mL LB broth and grown for a further 4 h, until the cells reached exponential growth. Bacterial suspension was transferred into 50 mL centrifuge tubes and cells centrifuged at ~3,000 rpm for 30 min. Supernatants were discarded and pellets were re-suspended in 15 mL Phosphate Buffered Saline (PBS). Cells were then mixed by vortexing and the centrifugation process was repeated. This cell washing process was repeated three times. The final washed and pelleted cells were re-suspended in a total of 10 mL PBS, and mixed by vortexing. The cell suspension was then ten-fold serially diluted. The concentration of the cell suspension was then determined using the spread plate technique and spreading 100 μL of the various dilutions onto LB plates, in duplicate. Plates were incubated at 37°C overnight before counting colony forming units (CFU). The viable count was then used to dilute the washed cell suspension to the desired concentrations (i.e., average Log10 7.82 CFU/mL or 6.62x10^7 CFU/mL) using PBS. Two hundred microliter aliquots were dispensed into microfuge tubes and labeled bacterial inoculum. To inoculate the rat tibias the bacterial inoculum was mixed with equal volume of 1% (w/v) molten agarose (Pulsed field certified agarose, Biorad, Hercules, CA). Mixing the bacteria with agarose helped to control seepage of the inoculum and minimize contamination of the surrounding muscle.
# After sacrificing the rats, the tibia and gastrocnemius muscle surrounding the surgical site were explanted, weighed separately and flash frozen with liquid nitrogen prior to pulverizing in a freezer mill (6770 Spex SamplePrep, Metuchen, NJ.). The powdered samples were then re-weighed, suspended (i.e., 1:10) in phosphate buffered saline (PBS), vortexed, and 10-fold serially diluted before plating (in duplicate) 100 μL of suspensions onto LB plates (Luria-Bertani, Miller broth mixed with 1.2% (w/v) Technical Agar (Difco, Sparks, MD.)). Plates were incubated at 37°C for 18–24 h and the bacterial load (colony forming units) per sample was calculated based on the number of colonies seen at specific dilutions. Confirmation of isolating S. aureus Xen 36 colonies from samples was determined using the IVIS (Lumina II, Caliper Life Science, Hopkinton, MA.). Non-bioluminescent colonies were confirmed as S. aureus using Gram staining, catalase test and Color Staph ID kit (Sure-Vue, Fisher Scientific, Houston TX.).
# [3] = patient with normal renal function, intravenous infusion; ref [11], [21]; cited from earlier work
# [4] = In-vivo pharmacokinetic study: vancomycin in tibia, muscle and plasma after intramedullary delivery (HPLC); conditions: rat; for Mean vancomycin concentration in gastrocnemius muscle (ug drug/g tissue, AVE) / Mean vancomycin concentration in tibia (ug drug/g tissue, AVE): single 25 mg/Kg intramedullary dose to tibia, mean of n = 4; for Vancomycin in muscle, ug drug/g tissue / Vancomycin in plasma: single rat
# [5] = test system: chondrocyte (N1511) cells; parameters: method as in Antoci et al. [39]; conditions: ref Antoci et al. [39]; cited from earlier work
# [6] = single 25 mg/Kg intramedullary dose, 4 h, HPLC, sample 1-1
# [7] = single 25 mg/Kg intramedullary dose, 4 h, HPLC, sample 1-3
# [8] = single 25 mg/Kg intramedullary dose, 4 h, HPLC, sample 1-4
# [9] = single 25 mg/Kg intramedullary dose, 6 h, HPLC, sample 2-1
# [10] = single 25 mg/Kg intramedullary dose, 6 h, HPLC, sample 2-2
# [11] = single 25 mg/Kg intramedullary dose, 6 h, HPLC, sample 2-3
# [12] = single 25 mg/Kg intramedullary dose, 6 h, HPLC, sample 2-4
# [13] = single 25 mg/Kg intramedullary dose, 12 h, HPLC, sample 3-1
# [14] = single 25 mg/Kg intramedullary dose, 12 h, HPLC, sample 3-2
# [15] = single 25 mg/Kg intramedullary dose, 12 h, HPLC, sample 3-3
# [16] = single 25 mg/Kg intramedullary dose, 12 h, HPLC, sample 3-4
# [17] = single 25 mg/Kg intramedullary dose, 24 h, HPLC, sample 4-1
# [18] = single 25 mg/Kg intramedullary dose, 24 h, HPLC, sample 4-2
# [19] = single 25 mg/Kg intramedullary dose, 24 h, HPLC, sample 4-3
# [20] = single 25 mg/Kg intramedullary dose, 24 h, HPLC, sample 4-4
# [21] = single 25 mg/Kg intramedullary dose, 48 h, HPLC, sample 5-1
# [22] = single 25 mg/Kg intramedullary dose, 48 h, HPLC, sample 5-2
# [23] = single 25 mg/Kg intramedullary dose, 48 h, HPLC, sample 5-4
# [24] = single 25 mg/Kg intramedullary dose, 72 h, HPLC, sample 6-2
# [25] = single 25 mg/Kg intramedullary dose, 72 h, HPLC, sample 6-3
# [26] = single 25 mg/Kg intramedullary dose, 72 h, HPLC, sample 6-4
# [27] = single 25 mg/Kg intramedullary dose, 96 h, HPLC, sample 7-1
# [28] = single 25 mg/Kg intramedullary dose, 96 h, HPLC, sample 7-2
# [29] = single 25 mg/Kg intramedullary dose, 96 h, HPLC, sample 7-3
# [30] = single 25 mg/Kg intramedullary dose, 96 h, HPLC, sample 7-4
# [31] = single 25 mg/Kg intramedullary dose, HPLC
smiles,measurement,setting,value
"CN[C@H](CC(C)C)C(=O)N[C@H]1C(=O)N[C@@H](CC(N)=O)C(=O)N[C@H]2C(=O)N[C@H]3C(=O)N[C@H](C(=O)N[C@H](C(=O)O)c4cc(O)cc(O)c4-c4cc3ccc4O)[C@H](O)c3ccc(c(Cl)c3)Oc3cc2cc(c3O[C@@H]2O[C@H](CO)[C@@H](O)[C@H](O)[C@H]2O[C@H]2C[C@](C)(N)[C@H](O)[C@H](C)O2)Oc2ccc(cc2Cl)[C@H]1O [vancomycin, vancomycin hydrochloride]",Vancomycin concentration that caused cell death,[1],10 mg/mL
same,Viable bacteria in tibia of treated rats,"[2]; rat tibia inoculated with S. aureus Xen 36, single 25 mg/Kg intramedullary dose, end of 14-day study",< 200 CFU/g
same,Signs of infection around the surgical site,"[2]; rat, S. aureus Xen 36, prophylactic single 25 mg/Kg intramedullary dose, 14 days",no signs of infection
same,Bacteria in the muscle and plasma samples of treated rats,"[2]; rat, S. aureus Xen 36, single 25 mg/Kg intramedullary dose, end of study",No bacteria were detected
same,Ave Log10 CFU/muscle,"[2]; treated rats, explanted muscle at end of 14-day study, mean of n = 9, values of 100 CFU = below detection limit",2.00 Log10 CFU/muscle
same,Ave Log10 CFU/tibia,"[2]; treated rats, explanted tibia at end of 14-day study, mean of n = 9, values of 100 CFU = below detection limit",2.09 Log10 CFU/tibia
same,Log10 CFU/tibia,"[2]; treated, end of study, rat K-11, 2.00 = below detection limit",2.81 Log10 CFU/tibia
same,Elimination half-life,[3],approximately 6 hours
same,Therapeutic or supra-therapeutic bone concentrations of vancomycin,[4]; local delivery to the medullary canal,> 100 µg/mL
same,Time the infused drug stays in the bone,[4]; single 25 mg/Kg intramedullary dose,at least 96 hours
same,"Mean vancomycin concentration in gastrocnemius muscle (ug drug/g tissue, AVE)","[4]; 4 h, HPLC",167.793 µg/g
same,"Mean vancomycin concentration in tibia (ug drug/g tissue, AVE)","[4]; 4 h, HPLC",818.068 µg/g
same,"Mean vancomycin concentration in gastrocnemius muscle (ug drug/g tissue, AVE)","[4]; 6 h, HPLC",90.1696 µg/g
same,"Mean vancomycin concentration in tibia (ug drug/g tissue, AVE)","[4]; 6 h, HPLC",784.095 µg/g
same,"Mean vancomycin concentration in gastrocnemius muscle (ug drug/g tissue, AVE)","[4]; 12 h, HPLC",29.0616 µg/g
same,"Mean vancomycin concentration in tibia (ug drug/g tissue, AVE)","[4]; 12 h, HPLC",359.143 µg/g
same,"Mean vancomycin concentration in gastrocnemius muscle (ug drug/g tissue, AVE)","[4]; 24 h, HPLC",0 µg/g
same,"Mean vancomycin concentration in gastrocnemius muscle (ug drug/g tissue, AVE)","[4]; 48 h, HPLC",0.99 µg/g
same,"Mean vancomycin concentration in tibia (ug drug/g tissue, AVE)","[4]; 48 h, HPLC",515.375 µg/g
same,"Mean vancomycin concentration in gastrocnemius muscle (ug drug/g tissue, AVE)","[4]; 72 h, HPLC",0.6895 µg/g
same,"Mean vancomycin concentration in tibia (ug drug/g tissue, AVE)","[4]; 72 h, HPLC",130.325 µg/g
same,"Mean vancomycin concentration in gastrocnemius muscle (ug drug/g tissue, AVE)","[4]; 96 h, HPLC",1.205 µg/g
same,"Mean vancomycin concentration in tibia (ug drug/g tissue, AVE)","[4]; 96 h, HPLC",110.095 µg/g
same,"Vancomycin in muscle, ug drug/g tissue",[4]; [6],0 ug drug/g tissue
same,Vancomycin in plasma,[4]; [6],2.855 µg/mL
same,"Vancomycin in muscle, ug drug/g tissue","[4]; single 25 mg/Kg intramedullary dose, 4 h, HPLC, sample 1-2",0 ug drug/g tissue
same,"Vancomycin in muscle, ug drug/g tissue",[4]; [7],0 ug drug/g tissue
same,Vancomycin in plasma,[4]; [7],2.69 µg/mL
same,"Vancomycin in muscle, ug drug/g tissue",[4]; [8],671.173 ug drug/g tissue
same,Vancomycin in plasma,[4]; [8],8.576 µg/mL
same,"Vancomycin in muscle, ug drug/g tissue",[4]; [9],0 ug drug/g tissue
same,Vancomycin in plasma,[4]; [9],0.1311 µg/mL
same,"Vancomycin in muscle, ug drug/g tissue",[4]; [10],359.037 ug drug/g tissue
same,Vancomycin in plasma,[4]; [10],3.7319 µg/mL
same,"Vancomycin in muscle, ug drug/g tissue",[4]; [11],0 ug drug/g tissue
same,Vancomycin in plasma,[4]; [11],-0.165 µg/mL
same,"Vancomycin in muscle, ug drug/g tissue",[4]; [12],1.642 ug drug/g tissue
same,Vancomycin in plasma,[4]; [12],0.01263 µg/mL
same,"Vancomycin in muscle, ug drug/g tissue",[4]; [13],0 ug drug/g tissue
same,Vancomycin in plasma,[4]; [13],-0.165 µg/mL
same,"Vancomycin in muscle, ug drug/g tissue",[4]; [14],114.004 ug drug/g tissue
same,Vancomycin in plasma,[4]; [14],0.9602 µg/mL
same,"Vancomycin in muscle, ug drug/g tissue",[4]; [15],2.243 ug drug/g tissue
same,Vancomycin in plasma,[4]; [15],1.434 µg/mL
same,"Vancomycin in muscle, ug drug/g tissue",[4]; [16],0 ug drug/g tissue
same,Vancomycin in plasma,[4]; [16],0.747 µg/mL
same,"Vancomycin in muscle, ug drug/g tissue",[4]; [17],0 ug drug/g tissue
same,Vancomycin in plasma,[4]; [17],0.2258 µg/mL
same,"Vancomycin in muscle, ug drug/g tissue",[4]; [18],0 ug drug/g tissue
same,Vancomycin in plasma,[4]; [18],0.9365 µg/mL
same,"Vancomycin in muscle, ug drug/g tissue",[4]; [19],0 ug drug/g tissue
same,Vancomycin in plasma,[4]; [19],0.3917 µg/mL
same,"Vancomycin in muscle, ug drug/g tissue",[4]; [20],0 ug drug/g tissue
same,Vancomycin in plasma,[4]; [20],0.6404 µg/mL
same,"Vancomycin in muscle, ug drug/g tissue",[4]; [21],0 ug drug/g tissue
same,Vancomycin in plasma,[4]; [21],0.8299 µg/mL
same,"Vancomycin in muscle, ug drug/g tissue",[4]; [22],0 ug drug/g tissue
same,Vancomycin in plasma,[4]; [22],0.7352 µg/mL
same,"Vancomycin in muscle, ug drug/g tissue","[4]; single 25 mg/Kg intramedullary dose, 48 h, HPLC, sample 5-3",0 ug drug/g tissue
same,"Vancomycin in muscle, ug drug/g tissue",[4]; [23],3.96 ug drug/g tissue
same,Vancomycin in plasma,[4]; [23],0.593 µg/mL
same,"Vancomycin in muscle, ug drug/g tissue","[4]; single 25 mg/Kg intramedullary dose, 72 h, HPLC, sample 6-1",0 ug drug/g tissue
same,"Vancomycin in muscle, ug drug/g tissue",[4]; [24],0 ug drug/g tissue
same,Vancomycin in plasma,[4]; [24],-0.03475 µg/mL
same,"Vancomycin in muscle, ug drug/g tissue",[4]; [25],2.758 ug drug/g tissue
same,Vancomycin in plasma,[4]; [25],0.04816 µg/mL
same,"Vancomycin in muscle, ug drug/g tissue",[4]; [26],0 ug drug/g tissue
same,Vancomycin in plasma,[4]; [26],0.2495 µg/mL
same,"Vancomycin in muscle, ug drug/g tissue",[4]; [27],0 ug drug/g tissue
same,Vancomycin in plasma,[4]; [27],-0.165 µg/mL
same,"Vancomycin in muscle, ug drug/g tissue",[4]; [28],0 ug drug/g tissue
same,Vancomycin in plasma,[4]; [28],-0.165 µg/mL
same,"Vancomycin in muscle, ug drug/g tissue",[4]; [29],4.819 ug drug/g tissue
same,Vancomycin in plasma,[4]; [29],-0.165 µg/mL
same,"Vancomycin in muscle, ug drug/g tissue",[4]; [30],0 ug drug/g tissue
same,Vancomycin in plasma,[4]; [30],-0.165 µg/mL
same,"Vancomycin concentration in the gastrocnemius muscle, first 4h post administration",[4]; [31],> 100 µg/g
same,Vancomycin level in the gastrocnemius muscle by 24h,[4]; [31],near undetectable levels
same,Vancomycin concentration detected in the tibia over the 96-h study period,"[4]; single 25 mg/Kg intramedullary dose, HPLC of pulverized tissue",> 100 µg/g
same,Vancomycin detected in the blood plasma for the entirety of the study,"[4]; single 25 mg/Kg intramedullary dose, HPLC, 96 h study",Little to no vancomycin was detected
same,Time a supratherapeutic antimicrobial dose (>100 μg/mL) was maintained in the surrounding muscle,"[4]; single 25 mg/Kg intramedullary dose, n = 4 per time point",< 6 h
same,Doses that severely decreased cellular proliferation,[5],greater than 2 mg/mL

# Reference: publication PMC4966941 (PLoS ONE, 2016)
